Target: T1, bCA-II (Bos taurus, UniProt P00921)
T1 construct: gene CA2
Assay: NPA (4-nitrophenyl acetate) hydrolysis assay with isolated bCA-II after […] nm photodeprotection of PCEM
Assay type: biochemical

T1 sequence (P00921 2-260): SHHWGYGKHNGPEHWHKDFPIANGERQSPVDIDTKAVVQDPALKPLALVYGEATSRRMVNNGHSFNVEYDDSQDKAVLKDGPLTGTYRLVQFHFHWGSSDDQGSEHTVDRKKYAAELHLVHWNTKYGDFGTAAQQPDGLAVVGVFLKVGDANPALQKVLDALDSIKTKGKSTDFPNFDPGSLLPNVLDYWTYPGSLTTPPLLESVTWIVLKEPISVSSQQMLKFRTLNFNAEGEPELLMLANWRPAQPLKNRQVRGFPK

## NS(=O)(=O)c1nc2ccc(OCCC[n+]3ccccc3)cc2s1 [dPCEM]
  IC50: 2.9 µM
